Data published in patent US5637731A (priority 1996, dated 1997).
Where a name gives a salt, the structure may show the parent alone. Read-outs that look alike come from different tables or passages of the source.

Key:
[1] = molecular target: muscarinic cholinergic receptor; assay: [^3 H]-Cis-methyldioxolane (^3 H-CD) Binding Assay (High Affinity); conditions: rat cerebral cortex, ^3 H-CD 1.0 nM, 25° C., 120 minutes, pH 7.4; high affinity agonist binding
[2] = molecular target: muscarinic cholinergic receptor; assay type: binding, rat; conditions: rat cerebral cortex, ^3 H-QNB 0.25 nM, 25° C., 120 minutes, pH 7.4

Row | Structure (SMILES) | Ki [1] | Ki [2]
1 | CC1CCN(CC#CCN2CCCC2CO[Si](C)(C)C(C)(C)C)C1=O (stereo not drawn) [[R-[(R*,R* and R*,S*)]]-1-[4-[2-[[[(1,1-dimethylethyl)dimethylsilyl]oxy]methyl]-1-pyrrolidinyl]-2-butynyl]-3-methyl-2-pyrrolidinone] | 5600 nM | 2500 nM
2 | CCCCCCCCCC(=O)O[C@@H]1CCN(CC#CCN(C)C)C1=O [(R)-Decanoic acid 1-[4-(dimethylamino)-2-butynyl]-2-oxo-3-pyrrolidinyl ester] | 730 nM | > 100000 nM
3 | C[N+](C)(C)CC#CCN1CC[C@@H](N=[N+]=[N-])C1=O [(R)-4-(3-Azido-2-oxo-1-pyrrolidinyl)-N,N,N-trimethyl-2-butyn-1-aminium iodide] | 39 nM | 800 nM
4 | CCCCCCCCCC(=O)O[C@H]1CC(=O)N(CC#CCN2CCCC2)C1 [(S)-Decanoic acid 2-oxo-1-[4-(1-pyrrolidinyl)-2-butynyl]-4-pyrrolidinyl ester] | 330 nM | 35 nM
5 | CC(C)(C)[Si](C)(C)OC[C@H]1CCCN1CC#CCN1CC[C@H](O)C1=O [[S-(R*,S*)]-1-[4-[2-[[[(1,1-Dimethylethyl)dimethylsilyl]-oxy]methyl]-1-pyrrolidinyl]-2-butynyl]-3-hydroxy-2-pyrrolidinone] | 1700 nM | 198000 nM
6 | CC(C)(C)C(=O)O[C@@H]1CCN(CC#CC[N+](C)(C)C)C1=O [(R)-3-[3-(2,2-Dimethyl-1-oxopropoxy)-2-oxo-1-pyrrolidinyl]-N,N, N-trimethyl-2-butyn-1-aminium iodide] | 1220 nM | > 100000 nM
7 | CN(C)CC#CCN1CC[C@H](N)C1=O [(S)-3-Amino-1-[4-(dimethylamino)-2-butynyl]-2-pyrrolidinone dihydrochloride] | 2600 nM | > 100000 nM
8 | CN(CC#CCN1CC[C@H](O)C1=O)CCCCO [(S)-3-Hydroxy-1-[4-[(4-hydroxybutyl)methylamino]-2-butynyl]-2-pyrrolidinone] | 1300 nM | > 100000 nM
9 | O=C(OCc1ccccc1)O[C@@H]1CCN(CC#CCN2CCCC2)C1=O [(R)-Carbonic acid 2-oxo-1-[4-(1-pyrrolidinyl)-2-butynyl]-3-pyrrolidinyl phenylmethyl ester] | 110 nM | 1400 nM
10 | CC1CCN(CC#CCN2CCC(O[Si](C)(C)C(C)(C)C)C2)C1=O (stereo not drawn) [[R-(R*,R* and R*,S*)]-1-[4-[3[[(1,1-dimethylethyl)-dimethylsilyl]oxy]-1-pyrrolidinyl-2-butynyl]-3-methyl-2-pyrrolidinone] | > 100000 nM | > 100000 nM
11 | CS[C@H]1CCN(CC#CCN2CCCC2)C1=O [(S)-3-(Methylthio)-1-[4-(1-pyrrolidinyl)-2-butynyl]-2-pyrrolidinone] | 1040 nM | 53000 nM
12 | CC(C)(C)C(=O)O[C@H]1CCN(CC#CCN2CCCC2)C1=O [(S)-2,2-Dimethylpropanoic acid 2-oxo-1-[4-(1-pyrrolidinyl)-2-butynyl]-3-pyrrolidinyl ester] | 370 nM | 4600 nM
13 | CCCCCCCCNC(=O)O[C@@H]1CCN(CC#CCN(C)C)C1=O [(R)-Octylcarbamic acid 1-[4-(dimethylamino)-2-butynyl]-2-oxo-2-pyrrolidinyl ester] | 1430 nM | 32000 nM
14 | O=C1[C@@H](O)CCN1CC#CCN1CCC[C@H]1CO [[S-(R*,R*)]-3-Hydroxy-1-[4-[2-(hydroxymethyl)-1-pyrrolidinyl]-2-butynyl]-2-pyrrolidinone] | 34300 nM | > 100000 nM
15 | CCCCCCCCOC(=O)O[C@H]1CCN(CC#CC[N+](C)(C)C)C1=O [(S)-N,N, N-Trimethyl-4-[3-[[(octyloxy)carbonyl]oxy]-2-oxo-1-pyrrolidinyl]-2-butyn-1-aminium iodide] | 13 nM | 100 nM
16 | CNC(=O)O[C@H]1CCN(CC#CCN2CCCC2)C1=O [(S)-3-[[Methylamino)carbonyl]oxy]-1-[4-(1-pyrrolidinyl)-2-butynyl]-2-pyrrolidinone] | > 100000 nM | 433000 nM
17 | CCCCCCCCNC(=O)O[C@@H]1CCN(CC#CCN2CCCC2)C1=O [(R)-Octylcarbamic acid 2-oxo-1-[4-(1-pyrrolidinyl)-2-butynyl]-3-pyrrolidinyl ester] | 240 nM | 200 nM
18 | CS[C@H]1CCN(CC#CC[N+](C)(C)C)C1=O [(S)-N,N, N-Trimethyl-4-[3-(methylthio)-2-oxo1-pyrrolidinyl]-2-butyn-1-aminium iodide] | 310 nM | 1800 nM
19 | C[C@@H]1CCN(CC#CCN(C)C)C1=O [(R)-1-[4-(Dimethylamino)-2-butynyl]-3-methyl-2-pyrrolidinone] | 73 nM | 7700 nM
20 | CC(C)(C)[Si](C)(C)OC[C@H]1CCCN1CC#CCN1CC[C@@H](O)C1=O [[R-(R*,R*)]-1-[4-[2-[[[(1,1-Dimethylethyl)dimethylsilyl]-oxy]methyl]-1-pyrrolidinyl]-2-butynyl]-3-hydroxy-2-pyrrolidinone] | 4200 nM | > 100000 nM

Row | Structure (SMILES) | Ki [1] | Ki [2]
21 | CCCCCCOC(=O)O[C@H]1CCN(CC#CCN2CCCC2)C1=O [(S)-Carbonic acid hexyl 2-oxo-1-[4-(1-pyrrolidinyl)-2-butynyl]-3-pyrrolidinyl ester] | 15 nM | 1700 nM
22 | CS[C@@H]1CCN(CC#CCN(C)C)C1=O [(R)-1-[4-(Dimethylamino)-2-butynyl]-3-(methylthio)-2-pyrrolidinone] | 6100 nM | 108000 nM
23 | CC1CCN(CC#CCN2CCC2)C1=O (racemic) [Racemic 1-[4-(1-azetidinyl)-2-butynyl-3-methyl-2-pyrrolidinone, Racemic 1-[4-(1-azetidinyl)-2-butynyl]-3-methyl-2-pyrrolidinone] | 54 nM | 2000 nM
24 | CC1(O)CCN(CC#CCN2CCCC2)C1=O (racemic) [Racemic-3-Hydroxy-3-methyl-1-[4-(1-pyrrolidinyl)-2-butynyl]-2-pyrrolidinone, Racemic 3-hydroxy-3-methyl-1-[4-(1-pyrrolidinyl) 2-butynyl]-2-pyrrolidinone] | 5700 nM | 8600 nM
25 | CC(C)C(=O)O[C@@H]1CCN(CC#CCN2CCCC2)C1=O [(R)-2-Methylpropanoic acid 2-oxo-1-[4-(1-pyrrolidinyl)-2-butynyl]-3-pyrrolidinyl ester] | 135 nM | 87000 nM
26 | CC(=O)O[C@H]1CCN(CC#CCN2CCC[C@H]2CO[Si](C)(C)C(C)(C)C)C1=O [[S-(R*,R*)]-3-(Acetyloxy)-1-[4-[2-[[[(1,1-dimethylethyl)-dimethylsilyl]oxy]methyl]-1-pyrrolidinyl]-2-butynyl]-2-pyrrolidinone] | 79 nM | 2600 nM
27 | O=C(NCC#CCN1CCCC1)C(F)(F)F [2,2,2-Trifluoro-N-[4-(1-pyrrolidinyl)-2-butynyl]acetamide monohydrochloride] | 8880 nM | 18500 nM
28 | CC1CCN(CC#CCN(C)C)C1=O (racemic) [Racemic 1-[4-(1-Dimethylamino)-2-butynyl]-3-methyl-2-pyrrolidinone] | 410 nM | 21000 nM
29 | CC(=O)O[C@H]1CCN(CC#CCN2CCC[C@@H]2CO[Si](C)(C)C(C)(C)C)C1=O [[S-(R*,S*)]-3-(Acetyloxy)-1-[4-(2-[[[(1,1-dimethylethyl)dimethylsilyl]oxy]methyl]-1-pyrrolidinyl]-2-butynyl]-2-pyrrolidinone] | 4200 nM | > 100000 nM
30 | CCCCCCCCOC(=O)O[C@@H]1CCN(CC#CCN2CCCC2)C1=O [(R)-Carbonic acid octyl 2-oxo-1-[4-(1-pyrrolidinyl)-2-butynyl]-3-pyrrolidinyl ester] | 76 nM | 100 nM
31 | CCCCCCCCCC(=O)O[C@H]1CCN(CC#CCN(C)C)C1=O [(S)-Decanoic acid 1-[4-(dimethylamino)2-butynyl]-2-oxo-3-pyrrolidinyl ester] | 23 nM | 600 nM
32 | CC(C)C(=O)O[C@H]1CCN(CC#CC[N+](C)(C)C)C1=O [(S)-N,N, N-Trimethyl-4-[3-(2-methyl-1-oxopropoxy)-2-oxo-1-pyrrolidinyl]-2-butyn-1-aminium iodide] | 6960 nM | 64300 nM
33 | CCCCCCCCOC(=O)O[C@@H]1CCN(CC#CCN(C)C)C1=O [(R)-Carbonic acid 1-[4-(dimethylamino)-2-butynyl]-2-oxo-3-pyrrolidinyl octyl ester] | 1040 nM | 1500 nM
34 | COC(=O)O[C@@H]1CCN(CC#CCN(C)C)C1=O [(R)-Carbonic acid 1-[4-(dimethylamino)-2-butynyl]-2-oxo-3-pyrrolidinyl methyl ester monohydrochloride] | 3070 nM | 52000 nM
35 | CC(C)(C)[Si](C)(C)O[C@@H]1CCN(CC#CCN2CCC2)C1=O [(R)-1-[4-(1-Azetidinyl)-2-butynyl]-3-[[(1,1-dimethylethyl)dimethylsilyl]oxy]-2-pyrrolidinone] | > 100000 nM | > 100000 nM
36 | CC(C)C(=O)O[C@@H]1CCN(CC#CC[N+](C)(C)C)C1=O [(R)-N,N, N-Trimethyl-4-[3-(2-methyl-1-oxopropoxy)-2-oxo-1-pyrrolidinyl]-2-butyn-1 aminium iodide] | 240 nM | 45000 nM
37 | CN(C)CC#CCN1CC[C@H](O)C1=O [(S)-1-[4-(Dimethylamino)-2-butynyl]-3-hydroxy-2-pyrrolidinone] | 43 nM | 26900 nM
38 | CN(C)CC#CCN1CCC(C)(O)C1=O (racemic) [Racemic-1-[4-Dimethylamino)-2-butynyl]-3-hydroxy-3-methyl-2-pyrrolidinone, Racemic 1-[4-(Dimethylamino)-2-butynyl]-3-hydroxy-3-methyl-2-pyrrolidinone] | > 100000 nM | > 100000 nM
39 | O=C1[C@@H](O)CCN1CC#CCN1CCCC1 [(S)-3-Hydroxy-1-[4-(1-pyrrolidinyl)-2-butynyl]-2-pyrrolidinone] | 7 nM | 1700 nM
40 | CCCCCCCCCC(=O)O[C@@H]1CCN(CC#CCN2CCCC2)C1=O [(R)-Decanoic acid 2-oxo-1-[4-(1-pyrrolidinyl)-2-butynyl]-3-pyrrolidinyl ester] | 97 nM | 200 nM
